According to patent publication US10745448B2, “Antiviral peptide and use therefor” (priority 2017, dated 2020):
Values joined by “and” are separate entries in the source; they are usually repeats but may differ in a detail not shown here. Equal values may be shown once. No end group written: not given here.

Test system: vesicular stomatitis Indiana virus (Indiana VSV)
Assay type: cell-based

Row | Substance | Virus infectivity (virus titer)
1 | MKAIIVLLMVVTSNAKKRTLRKNDRKKR-CONH2 (MKAIIVLLMVVTSNAKKRTLRKNDRKKR-NH2) [Sample 3] | 9.23 log10 PFU/mL and 6.34 log10 PFU/mL
2 | MKTIIALSYIFCLALGKKRTLRKNDRKKR-CONH2 (MKTIIALSYIFCLALGKKRTLRKNDRKKR-NH2) [Sample 2] | 9.07 log10 PFU/mL and 5.95 log10 PFU/mL
3 | MLSYLIFALAVSPILGKKRTLRKNDRKKR-CONH2 (MLSYLIFALAVSPILGKKRTLRKNDRKKR-NH2) [Sample 1] | 9.11 log10 PFU/mL and 5.90 log10 PFU/mL
